From patent US5326883A, “Oxime ether derivatives having lipoxygenase inhibitory activity” (Abbott Laboratories, priority 1992, dated 1994)
pIC50: −log10 of the molar value.

Key:
5-Lipoxygenase = target: T1, 5-Lipoxygenase (Homo sapiens, UniProt P09917); experiment: Calcium ionophore-induced LTB4 biosynthesis in human whole blood (5-lipoxygenase inhibition); assay type: cell-based; conditions: human heparinized whole blood; 15 min preincubation at 37° C; A23187 8.3 μM, 30 min; LTB4 by radioimmunoassay
T1 construct: Human heparinized whole blood was preincubated with test compounds or vehicle for 15 min; endogenous in cells; host or cells: human heparinized whole blood (blood leukocytes)
T1 sequence (P09917 1-674): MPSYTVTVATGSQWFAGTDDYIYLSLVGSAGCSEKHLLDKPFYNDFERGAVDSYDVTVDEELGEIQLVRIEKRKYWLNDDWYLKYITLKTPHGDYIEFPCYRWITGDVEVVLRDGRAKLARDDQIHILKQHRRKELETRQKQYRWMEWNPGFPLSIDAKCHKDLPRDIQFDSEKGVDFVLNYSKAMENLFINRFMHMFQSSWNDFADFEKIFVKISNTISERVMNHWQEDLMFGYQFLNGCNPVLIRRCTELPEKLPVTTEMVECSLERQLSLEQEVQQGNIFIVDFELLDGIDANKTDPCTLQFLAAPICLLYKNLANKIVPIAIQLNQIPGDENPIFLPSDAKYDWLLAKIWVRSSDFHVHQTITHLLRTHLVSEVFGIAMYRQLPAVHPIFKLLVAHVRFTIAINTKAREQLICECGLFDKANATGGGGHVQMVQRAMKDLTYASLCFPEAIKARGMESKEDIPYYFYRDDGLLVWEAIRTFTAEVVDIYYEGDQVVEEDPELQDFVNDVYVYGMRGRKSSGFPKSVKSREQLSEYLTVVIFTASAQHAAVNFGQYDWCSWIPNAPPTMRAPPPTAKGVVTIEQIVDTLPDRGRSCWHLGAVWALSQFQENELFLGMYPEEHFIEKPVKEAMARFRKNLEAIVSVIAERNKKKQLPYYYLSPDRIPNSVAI
Experimental: Inhibition of leukotriene biosynthesis was evaluated in an assay, involving calcium ionophore-induced LTB4 biosynthesis expressed human whole blood. […] The methanol extract was analyzed for LTB4 using a commercially available radioimmunoassay. |In Vitro Inhibitory Potencies of Compounds of this Invention […] |in Human Whole Blood

[1] = system: biosynthesis of leukotrienes; experiment: Inhibition of leukotriene biosynthesis in vivo, rat peritoneal anaphylaxis model, oral; conditions: Oral Dose at 30 μmol/kg, gavage one hour prior to antigen challenge; rat peritoneal fluid 15 min after challenge
Experimental: Inhibition of the biosynthesis of leuktrienes in vivo after oral administration of compound was determined using a rat peritoneal anaphylaxis model in a similar manner as that described by Young and coworkers (Young, P. R.; Dyer, R. D.; Carter, G. W. Fed. Proc., Fed. Am. Soc. Exp. Biol. 1985, 44, 1185). In this model rats were injected intraperitoneally (ip) with rabbit antibody to bovine serum albumin (BSA) and three hours later injected ip with BSA to induce an antgen-antibody response. Rats were sacrificed 15 minutes after this challenge and the peritoneal fluids were collected and analyzed for leukotriene levels. Test compounds were administered by gavage one hour prior to the antigen challenge. Percent inhibition values were determined by comparing the treatment group to the mean of the control group.

Structure (SMILES)	pIC50 (5-Lipoxygenase)	% Inhibition of Leukotrienes [1]
CC(=NOCCN(O)C(N)=O)c1cc2ccccc2s1 [Example 1, 1-(benzo[b]thien-2-yl)ethyloximyl-O-2-ethyl-N-hydroxyurea]	7.00	–
CCCCCC=NOCCN(O)C(N)=O [Example 2, hexyloximyl-O-2-ethyl-N-hydroxyurea]	7.00	–
NC(=O)N(O)CCON=Cc1cccn1Cc1ccc(Cl)cc1 [Example 3, 1-(4-chlorobenzyl)-pyrro-2-ylmethyloximyl-O-2-ethyl-N-hydroxyurea]	6.80	–
NC(=O)N(O)CCON=Cc1cccc(Oc2ccc(F)cc2)c1 [Example 4, 3-(4-fluorophenoxy)phenylmethyloximyl-O-2-ethyl-N-hydroxyurea]	7.00	–
CC(CO/N=C\c1ccc(Oc2ccc(F)cc2)o1)N(O)C(N)=O (stereo not shown) [Example 6, 5-(4-fluorophenoxy)fur-2-ylmethyl-Z-oximyl-O-2-(1-methyl)ethyl-N-hydroxyurea]	–	70%
CC(CO/N=C/c1ccc(Oc2ccc(F)cc2)o1)N(O)C(N)=O (stereo not shown) [Example 7, 5-(4-fluorophenoxy)fur-2-ylmethyl-E-oximyl-O-2-(1-methyl)ethyl-N-hydroxyurea]	–	56%
CC(CN(O)C(N)=O)O/N=C/c1ccc(Oc2ccc(F)cc2)o1 (stereo not shown) [Example 8, 5-(4-fluorophenoxy)fur-2-ylmethyl-E-oximyl-O-2-(2-methyl)ethyl-N-hydroxyurea]	6.85	–
CC(CN(O)C(N)=O)O/N=C\c1ccc(Oc2ccc(F)cc2)o1 (stereo not shown) [Example 9, 5-(4-fluorophenoxy)fur-2-ylmethyl-Z-oximyl-O-2-(2-methyl)ethyl-N-hydroxyurea]	7.00	64%
NC(=O)N(O)CCON=Cc1ccc(Sc2ccccc2)o1 [Example 10, 5-(phenylthio)fur-2-ylmethyloximyl-O-2-ethyl-N-hydroxyurea]	7.00	–
